US20010051630A1, “Use of hydroxylamine derivatives, and method and preparations for increasing the tolerance of field crops against weather stresses” (priority 1997, published 2001)
Marks after values point to notes of the source that are not given here.

What was measured:
[1] = test system: Mo 17 inbred maize line; test: CSVT (Complex Stressing Vigour Test), seeds soaked in active agent, Mo 17 maize; type: in vivo; settings: seeds soaked in 10 mg/l active agent, * = significant vs control P < 0.05
Protocol: (§1) In this experiment the tolerance of maize, soybean and pepper seeds treated with the active agent against cold was tested. This test imposed temperature and oxygen deficiency stresses on the seeds and was carried out according to Barla-Szabó and Dolinka CSVT (Complex Stressing Vigour Test). For a single test, two hundred seeds were soaked for 48 hours at 25° C. and another 48 hours at 5° C in 150 ml distilled water containing the active agent in 10 mg/l concentration. Following the 96 hours of soaking, the seeds were further germinated between rolled wet paper for 96 hours at 25° C. There were 25 seeds in each roll, the rolls were placed vertically into containers and covered with a plastic bag in order to reduce evaporation. During the whole procedure the seeds were kept in darkness. At the end of the experiment the number of normally developing and ungerminated seeds were recorded. The length of the normal seedlings was measured and the average length of the five longest seedlings was calculated. Seedlings longer than 0.33 times the average length of the five longest seedlings were considered to be of high vigour, and low vigour seedlings were shorter than this length.

[2] = test system: maize of high chilling tolerance (HT) population; test: CSVT, maize population of high chilling tolerance (HT); type: in vivo
Protocol: as §1, with “darkness.” for “darkness. At the end of the experiment the number of normally developing and ungerminated seeds were recorded. The length of the normal seedlings was measured and the average length of the five longest seedlings was calculated. Seedlings longer than 0.33 times the average length of the five longest seedlings were considered to be of high vigour, and low vigour seedlings were shorter than this length.”
(§2) At the end of the experiment the number of normally developing and ungerminated seeds were recorded. The length of the normal seedlings was measured and the average length of the five longest seedlings was calculated. Seedlings longer than 0.33 times the average length of the five longest seedlings were considered to be of high vigour, and low vigour seedlings were shorter than this length.
(§3) In the case of a further experiment with maize of low chilling tolerance (LT) and high chilling tolerance (HT) populations [Ref: P. Landi, E. Frascaroli, A. Lovato; EUPHYTICA 64 21-29 (1992)], the following positive effects were found (Table 3.).

[3] = test system: maize of low chilling tolerance (LT) population; test: CSVT, maize population of low chilling tolerance (LT); type: in vivo
Protocol: as §1, with “darkness.” for “darkness. At the end of the experiment the number of normally developing and ungerminated seeds were recorded. The length of the normal seedlings was measured and the average length of the five longest seedlings was calculated. Seedlings longer than 0.33 times the average length of the five longest seedlings were considered to be of high vigour, and low vigour seedlings were shorter than this length.”
as §2, §3

[4] = test system: McCall soybeans; test: CSVT with PVA-pearled McCall soybeans, relative length; type: in vivo, soybean; settings: 2.5 mg in 1 ml 2.5% PVA per 100 seeds
Protocol: as §1, with “darkness.” for “darkness. At the end of the experiment the number of normally developing and ungerminated seeds were recorded. The length of the normal seedlings was measured and the average length of the five longest seedlings was calculated. Seedlings longer than 0.33 times the average length of the five longest seedlings were considered to be of high vigour, and low vigour seedlings were shorter than this length.”
In a further CSVT experiment also using McCall soybeans, polyvinylalcohol (PVA) was applied for pearling the seeds. The 2.5 mg doses of the active agents were dissolved in 1 ml of 2.5% PVA solution, and this quantity was applied to 100 pieces of seeds. The improvement of the chilling tolerance is observed by the significant elongation of the germ and the roots.

[5] = test system: Mo 17 maize inbred line; test: Chilling tolerance of maize in a gradient chamber; type: in vivo
Protocol: The experiment was performed using the Mo 17 maize inbred line. The seeds were coated with a 2% solution of the examined compound dissolved in 2 ml polyvinylalcohol before germination, where the above quantity of solution is applied for 100 seeds. The seeds were germinated for 3 days wrapped in wet filter paper, they were sown and then cultivated in gradient chamber for 6 weeks. In the gradient chamber, the temperature was maintained on a scale between 18 and 12° C., with differences of 1° C. This was followed by a one week regeneration at 23/20° C. temperature.
In the experiment, the length of the plants was measured 16, 31 and 43 days after the sowing, and at the end of the experiment the fresh weight of the plants was measured. The experiment was performed on 4 plants at each temperature and by each treatment.

[6] = test system: soybean cv. Bólyi 44; test: Field soybean cultivation, yield; type: in vivo; settings: for Weight of the crop (kg/m^2): seeds pearled with 1 mg active agent in 1 ml 5% PVA per 100 seeds; for Improvement compared to the control (%): weight of the crop
Protocol: The experiment was performed using soybean cv. Bólyi 44. Before sowing, the seeds were treated with Rhyzobium Japonicum nitrogen-binding bacterium, which forms a root nodule providing 50-70% of the nitrogen demand of the plant.
The examined compounds were applied by pearling the seeds; 1 ml of pearling agent containing 1 mg of active agent in a 5% aqueous PVA solution was used for 100 seeds.
The plants were sown after soil preparation in the autumn, using a crop rotation system, 3-5 cm deep in the ground, with a 45-50 cm row distance, a 5 cm plant distance and 450,000-500,000 plant/ha density. The date of sowing was Apr. 15, 1997. During the development of the plant, the usual cultivation procedures were followed and the usual pesticides were used. The harvest took place in September-October, with the water content of the grains being between 16-18%.

[7] = test system: HMv09 inbred maize line; test: CSVT, seeds soaked in active agent, HMv09 maize; type: in vivo; settings: seeds soaked in 10 mg/l active agent
Protocol: as §1

[8] = test system: Seaway bean cultivar; test: Drought tolerance of beans, part a (5 days hardening); type: in vivo; settings: 7 days without water, one week regeneration
From the text: Based on the experiences of our preliminary experiments, the plants were hardened before the application of the active agent by withholding the water for a few days, until the first signs of withering appeared. Then the plants were watered and the active agent was either dissolved in the water, or sprayed to the plants directly. Afterwards, the plants were subjected to different periods of drought according to the given experiment, watered again, and after a week-long regeneration period, the survival ratio was determined.
a) Seaway bean cultivar was hardened for 5 days by withholding the water. Afterwards the plantlets were watered for two days normally. During this time, a 10 mg/liter and 100 mg/liter concentration solution of the active agent was applied two times a day dissolved in water or by direct spraying. Then the water was withheld for 7 days, and after a week-long regeneration period, the survival ratio was determined.

CCCCCCCCCCCCCCCC(=O)OC(CONC(=N)c1cccnc1)CN1CCCCC1.Cl (stereo not shown) [Compound 2, N-[2-palmitoyloxy-3-(1-piperidinyl)propoxy]-3-pyridinecarboximidamide Monohydrochloride]
Ratio of high vigour plants (%) [1]: 47* %
Ratio of high vigour plants %, HT [2]: 92* %
Ratio of high vigour plants %, LT [3]: 86* %
Relative length (control = 100), germ [4]: 133
Relative length (control = 100), root [4]: 150

Cl.O=[N+]([O-])c1ccccc1C(Cl)=NOCC(O)CN1CCCCC1 (stereo not shown) [Compound 4, N-[2-hydroxy-3-(1-piperidinyl)propoxy]-2′-nitro-benzenecarboximidoyl Chloride Monohydrochloride]
Ratio of high vigour plants (%) [1]: 32* %
Ratio of high vigour plants %, HT [2]: 96* %
Ratio of high vigour plants %, LT [3]: 92* %
Relative length (control = 100), germ [4]: 116
Relative length (control = 100), root [4]: 135
Length (cm) ([5]; 12° C., 16 days): 5.8 cm
Length (cm) ([5]; 12° C., 31 days): 11.3 cm
FW (g), fresh weight ([5]; 12° C., 43 days): 1.5 g
Length (cm) ([5]; 12° C., 43 days): 20.1 cm
Length (cm) ([5]; 13° C., 16 days): 7.4 cm
Length (cm) ([5]; 13° C., 31 days): 13.1 cm
FW (g), fresh weight ([5]; 13° C., 43 days): 2.1 g
Length (cm) ([5]; 13° C., 43 days): 23.8 cm
Length (cm) ([5]; 14° C., 16 days): 9.7 cm
Length (cm) ([5]; 14° C., 31 days): 17.2 cm
FW (g), fresh weight ([5]; 14° C., 43 days): 2.9 g
Length (cm) ([5]; 14° C., 43 days): 25.1 cm
Length (cm) ([5]; 15° C., 16 days): 10.2 cm
Length (cm) ([5]; 15° C., 31 days): 21.3 cm
FW (g), fresh weight ([5]; 15° C., 43 days): 4.4 g
Length (cm) ([5]; 15° C., 43 days): 32.3 cm
Length (cm) ([5]; 16° C., 16 days): 15.4 cm
Length (cm) ([5]; 16° C., 31 days): 26.8 cm
FW (g), fresh weight ([5]; 16° C., 43 days): 5.0 g
Length (cm) ([5]; 16° C., 43 days): 34.5 cm
Length (cm) ([5]; 17° C., 16 days): 19.7 cm
Length (cm) ([5]; 17° C., 31 days): 31.2 cm
FW (g), fresh weight ([5]; 17° C., 43 days): 6.6 g
Length (cm) ([5]; 17° C., 43 days): 37.3 cm
Length (cm) ([5]; 18° C., 16 days): 15.0 cm
Length (cm) ([5]; 18° C., 31 days): 28.4 cm
FW (g), fresh weight ([5]; 18° C., 43 days): 6.2 g
Length (cm) ([5]; 18° C., 43 days): 38.0 cm
Weight of the crop (kg/m^2) [6]: 0.50 kg/m^2
Improvement compared to the control (%) [6]: 11.1%

CC(C)(C)NCC(O)CONC(=Nc1ccccc1)c1ccccc1.Cl (stereo not shown) [Compound 5, N-[[3-(1,1-dimethylethyl)-amino]-2-hydroxypropoxy]-N′-phenyl-benzamidine hydrochloride]
Ratio of high vigour plants (%) [1]: 35* %
Ratio of high vigour plants (%) [7]: 57* %
Relative length (control = 100), germ [4]: 127
Relative length (control = 100), root [4]: 152
survival (%), Watering (10 mg/l) [8]: 25* %
survival (%), Watering (100 mg/l) [8]: 36* %
Length (cm) ([5]; 12° C., 16 days): 4.5 cm
Length (cm) ([5]; 12° C., 31 days): 10.9 cm
FW (g), fresh weight ([5]; 12° C., 43 days): 2.0 g
Length (cm) ([5]; 12° C., 43 days): 25.5 cm
Length (cm) ([5]; 13° C., 16 days): 4.7 cm
Length (cm) ([5]; 13° C., 31 days): 10.0 cm
FW (g), fresh weight ([5]; 13° C., 43 days): 1.1 g
Length (cm) ([5]; 13° C., 43 days): 18.5 cm
Length (cm) ([5]; 14° C., 16 days): 5.8 cm
Length (cm) ([5]; 14° C., 31 days): 11.6 cm
FW (g), fresh weight ([5]; 14° C., 43 days): 1.3 g
Length (cm) ([5]; 14° C., 43 days): 20.3 cm
Length (cm) ([5]; 15° C., 16 days): 9.5 cm
Length (cm) ([5]; 15° C., 31 days): 22.2 cm
FW (g), fresh weight ([5]; 15° C., 43 days): 5.4 g
Length (cm) ([5]; 15° C., 43 days): 34.0 cm
Length (cm) ([5]; 16° C., 16 days): 12.4 cm
Length (cm) ([5]; 16° C., 31 days): 26.4 cm
FW (g), fresh weight ([5]; 16° C., 43 days): 7.7 g
Length (cm) ([5]; 16° C., 43 days): 42.3 cm
Length (cm) ([5]; 17° C., 16 days): 17.8 cm
Length (cm) ([5]; 17° C., 31 days): 29.9 cm
FW (g), fresh weight ([5]; 17° C., 43 days): 9.7 g
Length (cm) ([5]; 17° C., 43 days): 44.3 cm
Length (cm) ([5]; 18° C., 16 days): 14.6 cm
Length (cm) ([5]; 18° C., 31 days): 25.0 cm
FW (g), fresh weight ([5]; 18° C., 43 days): 7.6 g
Length (cm) ([5]; 18° C., 43 days): 39.0 cm
Weight of the crop (kg/m^2) [6]: 0.52 kg/m^2
Improvement compared to the control (%) [6]: 15.5%

CNC(=NOCCCN1CCCCC1)N(C)c1ccccc1.Cl [Compound 6, N-N′-dimethyl-N′-phenyl-N″-[3-(1-piperidinyl)propoxy]-guanidine hydrochloride]
Ratio of high vigour plants (%) [1]: 36* %

CCCCCCN(OCC(O)CN1CCCCC1)C(N)=O (stereo not shown) [Compound 8, N-hexyl-N-[2-hydroxy-3-(1-piperidinyl)propoxyl]-urea]
Ratio of high vigour plants (%) [1]: 23* %

CN(C)C(=NOCC(O)CN1CCCCC1)Nc1ccccc1.Cl (stereo not shown) [Compound 9, N,N-dimethyl-N′-phenyl-N″-[2-hydroxy-3-(1-piperidinyl)propoxy]-guanidine hydrochloride]
Ratio of high vigour plants (%) [7]: 56* %

Cl.ClC(=NOCCCN1CCCCC1)c1cccs1 [Compound 10, N-[3-(1-piperidinyl)propoxy]-thiophene-2-carboximidoylchloride hydrochloride]
Ratio of high vigour plants (%) [7]: 45* %

Cl.c1ccc(N=C(NOCCCN2CCCCC2)c2ccccc2)cc1 [Compound 11, N-[3-(1-piperidinyl)propoxy]-N′-phenyl-benzamidine hydrochloride]
Ratio of high vigour plants (%) [7]: 53* %

N-[2-hydroxy-3-(1-piperidinyl)propoxy]-ethylurethane [Compound 7]
Ratio of high vigour plants (%) [1]: 24%
